# Reference: ChEMBL document CHEMBL6114986, “Vitexin alleviates lipid metabolism disorders and hepatic injury in obese mice through the PI3K/AKT/mTOR/SREBP-1c pathway” (Eur J Med Chem, 2025)
# Active and inactive are the calls of the source. The calls are words filed in the database; no cut-off is given here.
# Key:
# Assay type in all cases: functional, organism-based
# Mus musculus [1] = experiment: Anti-obesity activity in C57BL/6 mouse assessed as reduction in adipocyte volume at low to high dose administered intragastrically once daily for 5 weeks by CT analysis; settings: route ig
# Mus musculus [2] = experiment: Anti-obesity activity in C57BL/6 mouse assessed as final weight at low dose administered intragastrically once daily for 5 weeks (reference value: 28.86 +/- 0.86 g); settings: route ig
# Mus musculus [3] = experiment: Anti-obesity activity in C57BL/6 mouse assessed as liver IL-6 level at high dose administered intragastrically once daily for 5 weeks (reference value: 1042.25 +/- 21.85 pg/g); settings: route ig
# Mus musculus [4] = experiment: Anti-obesity activity in C57BL/6 mouse assessed as weight difference at low dose administered intragastrically once daily for 5 weeks (reference value: 9.80 +/- 0.97 g); settings: route ig
# Mus musculus [5] = experiment: Anti-obesity activity in C57BL/6 mouse assessed as serum TC level at low dose administered intragastrically once daily for 5 weeks (reference value: 11.12 +/- 0.32 mmol/g)
# Mus musculus [6] = experiment: Anti-obesity activity in C57BL/6 mouse assessed as decrease in ratio of p-mTOR/mTOR levels in liver at low to high dose administered intragastrically once daily for 5 weeks by immunoblot analysis; settings: route ig
# Mus musculus [7] = experiment: Anti-obesity activity in C57BL/6 mouse assessed as reduction in serum IL-18 level at high dose administered intragastrically once daily for 5 weeks relative to control; design: scale not given: the % may be the effect or the level left; settings: route ig
# Mus musculus [8] = experiment: Anti-obesity activity in C57BL/6 mouse assessed as liver index at high dose administered intragastrically once daily for 5 weeks (reference value: 3.97 +/- 0.09 %); settings: route ig
# Mus musculus [9] = experiment: Anti-obesity activity in C57BL/6 mouse assessed as weight difference at high dose administered intragastrically once daily for 5 weeks (reference value: 9.80 +/- 0.97 g); settings: route ig
# Mus musculus [10] = experiment: Anti-obesity activity in C57BL/6 mouse assessed as decrease in ratio of p-NFkappaB/NFkappaB levels in liver at low to high dose administered intragastrically once daily for 5 weeks by immunoblot analysis; settings: route ig
# Mus musculus [11] = experiment: Anti-obesity activity in C57BL/6 mouse assessed as reduction in inflammatory cell infiltration in liver at low to high dose administered intragastrically once daily for 5 weeks by H and E staining based analysis; settings: route ig
# Mus musculus [12] = experiment: Anti-obesity activity in C57BL/6 mouse assessed as reduction in lipid droplets in liver at low to high dose administered intragastrically once daily for 5 weeks by H and E staining based analysis; settings: route ig
# Mus musculus [13] = experiment: Anti-obesity activity in C57BL/6 mouse assessed as serum TC level at high dose administered intragastrically once daily for 5 weeks (reference value: 11.12 +/- 0.32 mmol/g)
# Mus musculus [14] = experiment: Anti-obesity activity in C57BL/6 mouse assessed as final weight at high dose administered intragastrically once daily for 5 weeks (reference value: 28.86 +/- 0.86 g); settings: route ig
# Mus musculus [15] = experiment: Anti-obesity activity in C57BL/6 mouse assessed as decrease in IL-1beta level in liver at low to high dose administered intragastrically once daily for 5 weeks by immunoblot analysis; settings: route ig
# Mus musculus [16] = experiment: Anti-obesity activity in C57BL/6 mouse assessed as decrease in […] level in liver at low to high dose administered intragastrically once daily for 5 weeks by immunoblot analysis; settings: route ig
# Mus musculus [17] = experiment: Anti-obesity activity in C57BL/6 mouse assessed as serum IL-18 level at high dose administered intragastrically once daily for 5 weeks (reference value: 149.1 +/- 2.066 pg/ml)
# Mus musculus [18] = experiment: Anti-obesity activity in C57BL/6 mouse assessed as reduction in body weight at high dose administered intragastrically once daily for 5 weeks relative to control; design: scale not given: the % may be the effect or the level left; settings: route ig
# Mus musculus [19] = experiment: Anti-obesity activity in C57BL/6 mouse assessed as reduction in liver IL-6 level at high dose administered intragastrically once daily for 5 weeks relative to control; design: scale not given: the % may be the effect or the level left; settings: route ig
# Mus musculus [20] = experiment: Anti-obesity activity in C57BL/6 mouse assessed as liver weight at low dose administered intragastrically once daily for 5 weeks (reference value: 1.15 +/- 0.04 g); settings: route ig
# Mus musculus [21] = experiment: Anti-obesity activity in C57BL/6 mouse assessed as reduction in subabdominal fat thickness at low to high dose administered intragastrically once daily for 5 weeks by CT analysis; settings: route ig
# Mus musculus [22] = experiment: Anti-obesity activity in C57BL/6 mouse assessed as decrease in ratio of p-PI3K/PI3K levels in liver at low to high dose administered intragastrically once daily for 5 weeks by immunoblot analysis; settings: route ig
# Mus musculus [23] = experiment: Anti-obesity activity in C57BL/6 mouse assessed as liver index at low dose administered intragastrically once daily for 5 weeks (reference value: 3.97 +/- 0.09 %); settings: route ig
# Mus musculus [24] = experiment: Anti-obesity activity in C57BL/6 mouse assessed as serum IL-18 level at low dose administered intragastrically once daily for 5 weeks (reference value: 149.1 +/- 2.066 pg/ml)
# Mus musculus [25] = experiment: Anti-obesity activity in C57BL/6 mouse assessed as liver TNF-alpha level at high dose administered intragastrically once daily for 5 weeks (reference value: 5940.65 +/- 261.75 pg/g); settings: route ig
# Mus musculus [26] = experiment: Anti-obesity activity in C57BL/6 mouse assessed as decrease in ratio of p-IkappaBalpha/IkappaBalpha levels in liver at low to high dose administered intragastrically once daily for 5 weeks by immunoblot analysis; settings: route ig
# Mus musculus [27] = experiment: Anti-obesity activity in C57BL/6 mouse assessed as reduction in liver TNF-alpha level at high dose administered intragastrically once daily for 5 weeks relative to control; design: scale not given: the % may be the effect or the level left; settings: route ig
# Mus musculus [28] = experiment: Anti-obesity activity in C57BL/6 mouse assessed as reduction in serum TG level at high dose administered intragastrically once daily for 5 weeks relative to control; design: scale not given: the % may be the effect or the level left; settings: route ig
# Mus musculus [29] = experiment: Anti-obesity activity in C57BL/6 mouse assessed as serum TG level at low dose administered intragastrically once daily for 5 weeks (reference value: 13.13 +/- 1.10 mmol/g)
# Mus musculus [30] = experiment: Anti-obesity activity in C57BL/6 mouse assessed as serum TG level at high dose administered intragastrically once daily for 5 weeks (reference value: 13.13 +/- 1.10 mmol/g)
# Mus musculus [31] = experiment: Anti-obesity activity in C57BL/6 mouse assessed as liver IL-6 level at low dose administered intragastrically once daily for 5 weeks (reference value: 1042.25 +/- 21.85 pg/g)
# Mus musculus [32] = experiment: Anti-obesity activity in C57BL/6 mouse assessed as initial weight at high dose administered intragastrically once daily for 5 weeks (reference value: 19.06 +/- 0.94 g); settings: route ig
# Mus musculus [33] = experiment: Anti-obesity activity in C57BL/6 mouse assessed as decrease in ratio of p-AKT/AKT levels in liver at low to high dose administered intragastrically once daily for 5 weeks by immunoblot analysis; settings: route ig
# Mus musculus [34] = experiment: Anti-obesity activity in C57BL/6 mouse assessed as reduction in serum TC level at high dose administered intragastrically once daily for 5 weeks relative to control; design: scale not given: the % may be the effect or the level left; settings: route ig
# Mus musculus [35] = experiment: Anti-obesity activity in C57BL/6 mouse assessed as liver weight at high dose administered intragastrically once daily for 5 weeks (reference value: 1.15 +/- 0.04 g); settings: route ig
# Mus musculus [36] = experiment: Anti-obesity activity in C57BL/6 mouse assessed as liver TNF-alpha level at low dose administered intragastrically once daily for 5 weeks (reference value: 5940.65 +/- 261.75 pg/g)
# Mus musculus [37] = experiment: Anti-obesity activity in C57BL/6 mouse assessed as initial weight at low dose administered intragastrically once daily for 5 weeks (reference value: 19.06 +/- 0.94 g); settings: route ig
smiles,measurement,setting,value
O=c1cc(-c2ccc(O)cc2)oc2c([C@@H]3O[C@H](CO)[C@@H](O)[C@H](O)[C@H]3O)c(O)cc(O)c12,Activity,Mus musculus [1],Active
same,Activity,Mus musculus [2],26.7 g
same,Activity,Mus musculus [3],806 pg/g
same,Activity,Mus musculus [4],5.76 g
same,Activity,Mus musculus [5],8.44 mmol/g
same,Activity,Mus musculus [6],Active
same,Activity,Mus musculus [7],27.6%
same,Activity,Mus musculus [8],3.23 g
same,Activity,Mus musculus [9],4.07 g
same,Activity,Mus musculus [10],Active
same,Activity,Mus musculus [11],Active
same,Activity,Mus musculus [12],Active
same,Activity,Mus musculus [13],7.81 mmol/g
same,Activity,Mus musculus [14],24.9 g
same,Activity,Mus musculus [15],Active
same,Activity,Mus musculus [16],Active
same,Activity,Mus musculus [17],108 pg/mL
same,Activity,Mus musculus [18],13.8%
same,Activity,Mus musculus [19],22.7%
same,Activity,Mus musculus [20],1.06 g
same,Activity,Mus musculus [21],Active
same,Activity,Mus musculus [22],Active
same,Activity,Mus musculus [23],3.6%
same,Activity,Mus musculus [24],125 pg/mL
same,Activity,Mus musculus [25],4110 pg/g
same,Activity,Mus musculus [26],Active
same,Activity,Mus musculus [27],30.8%
same,Activity,Mus musculus [28],37.3%
same,Activity,Mus musculus [29],8.71 mmol/g
same,Activity,Mus musculus [30],8.23 mmol/g
same,Activity,Mus musculus [31],829 pg/g
same,Activity,Mus musculus [32],20.8 g
same,Activity,Mus musculus [33],Active
same,Activity,Mus musculus [34],29.8%
same,Activity,Mus musculus [35],0.8 g
same,Activity,Mus musculus [36],5140 pg/g
same,Activity,Mus musculus [37],21 g
